Test results as given in the supplement of paper PMC12532568.

System: Danio rerio larvae Tg(actc1b:ZsGreen-LC3), 3 dpf
Test: LC3 puncta relative area vs vehicle (mean) (log2 fold change); higher = more autophagy
Settings: treatment time 16 h
Procedure: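 Transgenic ZsGreen-LC3 zebrafish larvae (2 dpf) were treated for 16 h with natural bioactives at 10, 50, 100 or 250 µM. Skeletal-muscle LC3 puncta area was measured by high-content imaging with or without 4 h of 100 mM NH4Cl, normalised to vehicle, and reported as the mean log2 fold change over 4–21 larvae.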

Structure (SMILES) | LC3 puncta (log2) (NH4Cl: + NH4Cl, 10 µM) | LC3 puncta (log2) (NH4Cl: + NH4Cl, 50 µM) | LC3 puncta (log2) (NH4Cl: + NH4Cl, 100 µM) | LC3 puncta (log2) (NH4Cl: + NH4Cl, 250 µM) | LC3 puncta (log2) (NH4Cl: - NH4Cl, 10 µM) | LC3 puncta (log2) (NH4Cl: - NH4Cl, 50 µM) | LC3 puncta (log2) (NH4Cl: - NH4Cl, 100 µM) | LC3 puncta (log2) (NH4Cl: - NH4Cl, 250 µM)
O=c1oc2c(O)c(O)cc3c(=O)oc4c(O)c(O)cc1c4c23 [Ellagic acid] | 0.705 | 0.347 | 0.0739 | 0.0325 | 0.154 | -0.476 | -0.223 | 0.00958
CCCCCCCC/C=C\CCCCCCCCCCCCCC(=O)O [Nervonic acid] | 0.639 | 0.888 | 1.09 | 0.707 | -0.0528 | 0.0416 | 0.723 | 0.0463
O=C(O)C[C@H](O)C(=O)O [(2S)-2-hydroxybutanedioic acid] | 0.631 | 0.508 | 0.375 |  | -0.158 | 0.038 | 0.417 | 0.262
C[n+]1cccc(C(=O)[O-])c1 [Trigonelline] | 0.266 | 0.266 | 0.112 |  | 0.202 | 0.619 | 0.435 | -0.0876
CC(=O)C(C)=O [Biacetyl] | 0.347 | 0.581 | 0.946 | 0.981 | 0.0128 | 0.343 | 0.699 | 0.218
CCCCCCCCCCCCCCCCCC(=O)O [stearic acid] | 0.718 | 0.677 | 0.635 | 1.13 | 0.39 | 0.392 | 0.127 | 0.245
C/C1=C2/[N-]C([C@H](CC(N)=O)[C@@]2(C)CCC(=O)NCC(C)OP(=O)([O-])OC2C(O)[C@@H](n3cnc4cc(C)c(C)cc43)O[C@@H]2CO)[C@]2(C)N=C(/C(C)=C3N=C(/C=C4N=C1[C@@H](CCC(N)=O)C\4(C)C)[C@@H](CCC(N)=O)[C@]\3(C)CC(N)=O)[C@@H](CCC(N)=O)[C@]2(C)CC(N)=O.[CH2-]C1O[C@H](n2cnc3c(N)ncnc32)[C@@H](O)[C@H]1O.[Co+3] (some centres not stated) [Coenzyme B12] | 0.47 | 0.446 | 0.394 | 0.833 | 0.178 | -0.299 | 0.292 | 0.281
C[C@@H](O)C(=O)O [(2R)-2-hydroxypropanoic acid] | 0.532 | 0.237 | 0.304 | 0.589 | 0.00532 | -0.27 | 0.144 | -0.203
C[C@@H]1O[C@@H](OC[C@H]2O[C@@H](Oc3c(-c4ccc(O)c(O)c4)oc4cc(O)cc(O)c4c3=O)[C@H](O)[C@@H](O)[C@@H]2O)[C@H](O)[C@H](O)[C@H]1O [Rutin hydrate] | 0.351 | 0.0277 | 0.401 | 0.491 | -0.169 | -0.116 | 0.291 | 0.18
O=C(O[C@@H]1Cc2c(O)cc(O)cc2O[C@@H]1c1ccc(O)c(O)c1)c1cc(O)c(O)c(O)c1 [(-)-Epicatechin gallate] | 0.221 | 0.493 | 0.661 |  | -0.0294 | 0.253 | 0.0524 | 
O=C(O)CCC(=O)O [Succinic acid] | 0.752 | 0.769 | 0.297 | 0.806 | 0.044 | 0.06 | -0.705 | -0.0293
O=C(O)CC(O)C(=O)O (configuration not stated) [Malic acid] | 0.364 | 0.607 | 0.449 | 0.554 | -0.0981 | -0.0981 | -0.0374 | -0.0364
C[C@H](O)CCO [(S)-1,3-Butylene Glycol] | 0.505 | -0.0626 | 0.509 |  | -0.143 | -0.512 | -0.016 | 0.014
NC(=O)c1ccc[n+]([C@@H]2O[C@H](CO)[C@@H](O)[C@H]2O)c1 [Nicotinamide riboside chloride] | 0.917 | 0.613 | 0.663 | 0.76 | 0.148 | -0.293 | 0.0672 | 0.257
N[C@@H](CCC(=O)O)C(=O)O [L-glutamic acid] | 0.755 | 0.239 | 0.876 | 0.997 | 0.144 | 0.165 | 0.702 | 0.322
O=c1oc2cc(O)ccc2c2ccccc12 [Urolithin B] | 0.159 | 1.38 | 1.04 |  | 0.474 | 0.688 | 0.767 | 
CCCCCCCCCCCCCCCC(=O)O [Palmitic acid] | 0.572 | 0.0741 | 0.0454 | 0.114 | 0.561 | -0.136 | -0.712 | -0.593
C[C@@H](CO)C(=O)O [Sodium β-hydroxyisobutyrate] | 0.761 | 0.505 | 0.553 | 0.277 | 0.14 | -0.573 | -0.233 | -0.327
CCCC(=O)[O-].[Na+] [Butyric acid sodium salt] | 0.256 | 0.65 | 0.615 | 0.513 | 0.036 | 0.362 | 0.26 | -0.0615
OCC(O)CO [Glycerol] | 0.468 | -0.233 | 0.425 | 0.628 | 0.0358 | -0.0173 | 0.118 | 0.027
CC(C)CC(O)C(=O)O (configuration not stated) [2-Hydroxyisocaproic acid] | 0.569 | 1.04 | 1.46 | 1.21 | -0.489 | 0.415 | 0.346 | 0.416
CCCCCCCCCC(=O)[O-].[Na+] [Sodium decanoate] | 0.524 | -0.00931 | -1.55 | -0.382 | 0.285 | -0.0288 | -0.846 | 0.298
N[C@H]1C(O)O[C@H](CO)[C@@H](O)[C@@H]1O (stereo partly drawn) [D-glucosamine] | 0.082 | 0.412 | 0.454 | 0.285 | 0.0603 | 0.0831 | 0.218 | 0.352
